For data set [1], the system named is SH-SY5Y. Put plainly: Induction of glutathione in human SH-SY5Y cells at 100 uM incubated for 24 hrs by GSH/GSSG Glo assay. The data set is classed as functional.
Data set [2] is described as follows: (§1) Neuroprotection against 25 uM 6-hydroxydopamine-induced neurotoxicity in human SH-SY5Y cells assessed as cell viability at 100 uM pre-incubated for 24 hrs before 6-hydroxydopamine challenge. Format: functional.
Data set [3] in a line: Neuroprotection against 50 uM 6-hydroxydopamine-induced neurotoxicity in human SH-SY5Y cells assessed as cell viability at 100 uM pre-incubated for 24 hrs before 6-hydroxydopamine challenge. The data set is classed as functional.
Data set [4] can be described thus: Toxicity against human SH-SY5Y cells at 100 uM incubated for 24 hrs. Format: cell-based.
The test system of data set [5] is SH-SY5Y. The description is as §1. The data set is classed as functional.

Activity calls are given as the source filed them. No cut-off for these calls is given here.

As to `CCc1cc(=S)ss1`, the result in the data set on SH-SY5Y [1] was Active.

For the compound `S=c1cc(C2CC2)ss1`, in the data set with SH-SY5Y [1], the outcome was Active.

On to `S=c1ccss1` [DITHIOLETHIONE], for which the Activity in the data set with SH-SY5Y [1] is 215%; in data set [2], 52%; in data set [3], 47%; in data set [4] it was “Non-toxic”.

With `FC(F)(F)Cc1cssc1=S`, the outcome with SH-SY5Y [1] was Active.

Consider `S=c1cc(-c2ccc(Cl)cc2)ss1`, for which the result in the data set on SH-SY5Y [1] and in the data set with SH-SY5Y [5] was inactive.

As to `S=c1ssc2c1CCCC2`, in the data set with SH-SY5Y [1], the Activity is given as 98%.

Take `Cc1ssc(=S)c1Cl`: the Activity with SH-SY5Y [1] is 175%; in data set [2], 52%; in data set [3], 33%; in data set [4], “Non-toxic”.

With `S=c1ssc2c1CCC2`, the Activity in the data set on SH-SY5Y [1] is 183%; in data set [2], 41%; in data set [3], 22%; in data set [4], “Non-toxic”.

Regarding `S=c1sscc1-c1ccc(Cl)cc1`, the result in the data set on SH-SY5Y [1] was Active.

With `COc1ccc(-c2cc(=S)ss2)cc1`, in the data set on SH-SY5Y [1], the outcome was inactive.

Turning to `S=c1sscc1-c1ccccc1`, the outcome in the data set on SH-SY5Y [1] was Active.

With `COc1ccc(-c2cssc2=S)cc1`, the outcome in the data set with SH-SY5Y [1] was Active.

For `Oc1ccc(-c2cc(=S)ss2)cc1`, the outcome in the data set with SH-SY5Y [1] was inactive.
